The record followed here is patent publication US20180318383A1, “PEPTIDE HAVING NEURONAL LOSS PREVENTION AND REGENERATION EFFECTS, AND COMPOSITION CONTAINING SAME” (GEMVAX & KAEL CO., LTD., priority 2015, published 2018).

In series [1] the test system is NSCs. Briefly: NSC differentiation in bFGF-free N2 medium (immunostaining). The settings on record: Aβ25-35 increased GFAP-positive and decreased NeuN-positive cells. Format: cell-based, rat. As for the experimental part:
NSC differentiation was induced by changing the cell culture medium to a bFGF (10 ng/ml)-free N2 medium, and the medium was exchanged daily.
Immunostaining was carried out to confirm intracellular expression and locations. For immunostaining, the following antibodies were used: Ki67 (1:100 Abcam), rabbit anti-doublecortin (1 mg/mL; Abcam), rabbit anti-glial fibrillary acidic protein (GFAP) (1:5000; Abcam), rabbit anti-Tuj1 (1 mg/mL; Abcam), mouse anti-GalC (1 mg/mL; Millipore), and rabbit anti-HMGB1 (1:100; Cell Signaling Technology).
However, in a large number of GFAP-positive cells and NeuN-positive cells, such immune responses were increased after differentiation.

Series [2] has as its system NSCs. Briefly: NSC proliferation (BrdU and CFU assays). The format is cell-based, rat. The settings on record: 48 hours, BrdU. As for the experimental part:
NSCs were treated with different concentrations of PEP1 and 20 μM Aβ25-30 for 48 hours. Afterward, NSCs were cultured in bromodeoxyuridine (BrdU)-labeled media for 5 hours and observed using a kit. Cell division was evaluated by measuring absorbance at 370 nm and reference absorbance at 492 nm. All results were normalized based on a cell-free well.
A CFU assay was carried out by the following method. Briefly, 0.25×10^5 NSCs were plated in a 6-well plate, and treated with 20 μM Aβ25-30 and then with PEP1 at 1, 10 or 50 μM for 48 hours. The cells were washed with DPBS, and then the medium was exchanged with a fresh cell culture medium. Fourteen days later, the cells were washed again with DPBS, and stained with 0.5% crystal violet dissolved in methanol for 30 minutes at room temperature. Following staining, the plate was washed with DPBS and then dried. The number of colonies was observed using a stereoscopic microscope, and among these colonies, those smaller than 2 mm or faintly stained were removed.

For a further series, the system named is Tuj1. The experiment in a line: Tuj1 expression in 3XTg-AD mice (western blotting, immunostaining). Format: in vivo. The settings on record: hippocampus and whole brain; s.c. three times a week for two months; vs control and Donepezil, same amount. As for the experimental part:
To test the efficacy of PEP1 on AD, AD transgenic mice (3XTg-AD) were purchased from Jackson Laboratory. Genetic characteristics of the transgenic mice are as follows: B6; 129-Psen1tm1Mpm Tg(APPSwe, tauP301L)1Lfa/Mmjax. […] One week after mice were confirmed as pregnant, new mice were delivered and weaned for 3 weeks. Two weeks later, mature mice were obtained.
During the preliminary breeding and the entire period of the experiment, a temperature was maintained at 23±2° C. and a relative humidity was maintained at 60±10%, and then the mice were raised under a 12-hour dark/light cycle. Experimental animals were divided into five groups, and each group included 10 animals. The divided experimental groups are as follows. […]
The PEP1, physiological saline, donepezil and scramble peptide were subcutaneously injected at each concentration three times a week for two months from the age of 12 months, and then two months after the injection, cognitive/memory behavior tests (passive avoidance test and Y maze test) were performed to examine a degree of improvement in cognitive function and memory function. After the brain was extracted to separate the hippocampus, the amounts of amyloid beta in the hippocampus and the whole brain, and the amounts of an amyloid beta oligomer and NFT generated by tau hyperphosphorylation were determined by western blotting and immunostaining. […]
A general note: A western blot detects proteins with antibodies after separation by electrophoresis.

For the sequence “EARPALLTSRLRFIPK (homo sapiens) [PEP1, hTERT-derived peptide consisting of 16 amino acids, telomerase location [611-626]]”, the “NSC differentiation into GFAP-positive and NeuN-positive cells” value with NSCs [1] is “the opposite effect was observed”. Further, in the series with NSCs [2] (20 μM Aβ25-35 + PEP1 up to 100 μM, vs 20 μM Aβ25-35 only, CFU), the “proliferation of NSCs” value is given as “gradually increased”. In the series on NSCs [2] (NSCs, PEP1 alone 0-200 μM, up to 100 μM), the proliferation result is “not influenced”. Besides, the Tuj1 entry in the series with Tuj1 was “increased”.
